ChEMBL document CHEMBL1201862, “PubChem BioAssay data set” (2004)
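Method: 48-hour compound exposure of cells in 96-well plates, five concentrations, linear interpolation of endpoints. GI50: concentration for 50% inhibition of growth.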 The source made the active and inactive calls. Rule as the data show it: active = GI50 up to about 1.1 µM and inactive = higher.

Tests used:
Assay in all cases: growth of human tumour cells (NCI), 48 h
NCI-H23 = system: NCI-H23
LOX IMVI = system: LOX IMVI
SK-MEL-5 = system: SK-MEL-5
SF-268 = system: SF-268
HOP-62 = system: HOP-62
HCC 2998 = system: HCC 2998
SK-MEL-2 = system: SK-MEL-2
786-0 = system: 786-0
UACC-257 = system: UACC-257
SF-539 = system: SF-539
HL-60 = system: HL-60
M14 = system: M14
HT-29 = system: HT-29
MDA-N = system: MDA-N
HOP-92 = system: HOP-92
KM12 = system: KM12
MDA-MB-435 = system: MDA-MB-435
TK-10 = system: TK-10
RPMI-8226 = system: RPMI-8226
SK-OV-3 = system: SK-OV-3

Compound | GI50 (NCI-H23) | GI50 (LOX IMVI) | GI50 (SK-MEL-5) | GI50 (SF-268) | GI50 (HOP-62) | GI50 (HCC 2998) | GI50 (SK-MEL-2) | GI50 (786-0) | GI50 (UACC-257) | GI50 (SF-539) | GI50 (HL-60) | GI50 (M14) | GI50 (HT-29) | GI50 (MDA-N) | GI50 (HOP-92) | GI50 (KM12) | GI50 (MDA-MB-435) | GI50 (TK-10) | GI50 (RPMI-8226) | GI50 (SK-OV-3)
Cc1cc(Cc2c(F)c(F)c(C(c3cc(C)no3)c3c(F)c(F)c(F)c(F)c3F)c(F)c2F)on1 (stereo not given) | > 100 µM (inactive) | > 46.1 µM (inactive) | 7.16 µM (inactive) | 78.3 µM (inactive) | > 100 µM (inactive) | > 27.9 µM (inactive) | 9.71 µM (inactive) | > 100 µM (inactive) | 5.32 µM (inactive) | 17.9 µM (inactive) | 5.13 µM (inactive) | 24 µM (inactive) | 6.08 µM (inactive) | 3.04 µM (inactive) | > 100 µM (inactive) | 19.5 µM (inactive) | 3.04 µM (inactive) | > 100 µM (inactive) | 33.5 µM (inactive) | –
COC1=C(C)C(=O)c2c(c(COC(N)=O)c3n2CC(OC(C)=O)C3OC(C)=O)C1=O (stereo not given) | 0.0436 µM (active) | 0.0294 µM (active) | 0.133 µM (active) | 0.0766 µM (active) | 0.126 µM (active) | 0.111 µM (active) | 0.191 µM (active) | < 0.0116 µM (active) | 0.115 µM (active) | 0.0239 µM (active) | < 0.0192 µM (active) | 0.0977 µM (active) | 0.036 µM (active) | 0.126 µM (active) | 0.186 µM (active) | 0.228 µM (active) | 0.165 µM (active) | 0.388 µM (active) | 0.0577 µM (active) | 0.41 µM (active)
Nc1ncnc2c1ccn2C/C=C/CO | > 100 µM (inactive) | > 100 µM (inactive) | > 100 µM (inactive) | > 100 µM (inactive) | > 100 µM (inactive) | > 100 µM (inactive) | > 100 µM (inactive) | > 100 µM (inactive) | > 100 µM (inactive) | > 100 µM (inactive) | > 100 µM (inactive) | > 100 µM (inactive) | > 100 µM (inactive) | > 100 µM (inactive) | > 100 µM (inactive) | > 100 µM (inactive) | > 100 µM (inactive) | > 100 µM (inactive) | > 100 µM (inactive) | > 100 µM (inactive)
CC(C)NC(=O)OCc1c(COC(=O)NC(C)C)c(-c2ccc[n+](COC(=O)C3CCCCC3)c2)n2c1CCC2 | 28.6 µM (inactive) | 31.6 µM (inactive) | 70.8 µM (inactive) | 42.6 µM (inactive) | 37.7 µM (inactive) | > 100 µM (inactive) | 44.6 µM (inactive) | 28.1 µM (inactive) | > 100 µM (inactive) | 35.8 µM (inactive) | > 100 µM (inactive) | 56 µM (inactive) | 90.6 µM (inactive) | > 100 µM (inactive) | 39.4 µM (inactive) | > 100 µM (inactive) | > 100 µM (inactive) | 94.6 µM (inactive) | > 100 µM (inactive) | 39.1 µM (inactive)
O=C(/C=C\c1ccccc1)Oc1ccc(/C=C2\CCCCC2=O)cc1 | 45.8 µM (inactive) | 60.4 µM (inactive) | 18.9 µM (inactive) | 25.2 µM (inactive) | 72.1 µM (inactive) | 47.3 µM (inactive) | 39.2 µM (inactive) | 37.4 µM (inactive) | 16.6 µM (inactive) | 28.7 µM (inactive) | 14.9 µM (inactive) | 40.6 µM (inactive) | 17.9 µM (inactive) | 33.3 µM (inactive) | 69 µM (inactive) | 44 µM (inactive) | 26.8 µM (inactive) | 15.1 µM (inactive) | 21.5 µM (inactive) | –
O=C(c1ccc(Cl)cc1)N(C(=S)OCCOc1ccccc1)c1ccccc1 | 18.1 µM (inactive) | 17.4 µM (inactive) | – | 25.1 µM (inactive) | 23 µM (inactive) | 19.5 µM (inactive) | 22.1 µM (inactive) | 18.7 µM (inactive) | 18.7 µM (inactive) | 18.9 µM (inactive) | 18.6 µM (inactive) | 16.1 µM (inactive) | 17.6 µM (inactive) | 16.6 µM (inactive) | 3.34 µM (inactive) | 19.1 µM (inactive) | 17 µM (inactive) | 29.4 µM (inactive) | 18.1 µM (inactive) | 36.1 µM (inactive)
Cc1cc(=O)oc2cc(OS(C)(=O)=O)ccc12 | > 100 µM (inactive) | > 100 µM (inactive) | > 100 µM (inactive) | > 100 µM (inactive) | > 100 µM (inactive) | > 100 µM (inactive) | > 100 µM (inactive) | > 100 µM (inactive) | > 100 µM (inactive) | > 100 µM (inactive) | > 100 µM (inactive) | > 100 µM (inactive) | > 100 µM (inactive) | > 100 µM (inactive) | > 100 µM (inactive) | – | > 100 µM (inactive) | > 100 µM (inactive) | > 100 µM (inactive) | –
